# From ChEMBL document CHEMBL3991601, “The target landscape of clinical kinase drugs” (Science, 2017)
# The source made the active and inactive calls. For most assays here, no stated cut-off is given here; in the data, actives have a measured Kd and inactives only a lower limit.
# Key:
# Ephrin type-B receptor 4 = biological target: T1, Ephrin type-B receptor 4 (Homo sapiens, UniProt P54760)
# T1 sequence (P54760 whole entry): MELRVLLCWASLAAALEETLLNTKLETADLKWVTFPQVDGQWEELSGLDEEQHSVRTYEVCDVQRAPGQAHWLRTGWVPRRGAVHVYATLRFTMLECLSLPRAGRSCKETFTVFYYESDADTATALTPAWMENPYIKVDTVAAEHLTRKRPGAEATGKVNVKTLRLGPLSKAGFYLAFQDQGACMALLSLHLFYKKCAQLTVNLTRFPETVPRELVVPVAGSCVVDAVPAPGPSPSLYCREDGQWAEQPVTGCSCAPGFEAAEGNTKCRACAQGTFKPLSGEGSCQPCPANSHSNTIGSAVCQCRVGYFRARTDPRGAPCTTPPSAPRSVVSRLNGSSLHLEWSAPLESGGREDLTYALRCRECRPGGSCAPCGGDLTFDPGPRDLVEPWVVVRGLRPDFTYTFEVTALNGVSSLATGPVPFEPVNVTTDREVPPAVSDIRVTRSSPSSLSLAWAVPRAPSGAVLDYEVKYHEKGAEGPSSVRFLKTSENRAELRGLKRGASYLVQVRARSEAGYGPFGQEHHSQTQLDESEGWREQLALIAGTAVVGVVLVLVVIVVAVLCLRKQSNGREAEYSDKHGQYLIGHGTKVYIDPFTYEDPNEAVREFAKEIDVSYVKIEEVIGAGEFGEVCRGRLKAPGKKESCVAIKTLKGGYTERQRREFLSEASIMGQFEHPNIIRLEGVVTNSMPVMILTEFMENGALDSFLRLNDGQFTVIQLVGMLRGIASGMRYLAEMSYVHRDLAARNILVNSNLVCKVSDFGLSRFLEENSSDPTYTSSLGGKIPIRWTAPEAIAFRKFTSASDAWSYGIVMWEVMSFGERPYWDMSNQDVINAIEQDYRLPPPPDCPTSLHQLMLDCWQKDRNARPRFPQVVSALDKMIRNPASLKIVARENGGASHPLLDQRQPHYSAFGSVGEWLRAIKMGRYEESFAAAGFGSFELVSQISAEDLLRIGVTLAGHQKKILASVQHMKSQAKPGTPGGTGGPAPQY
# [1] = biological target: T2, Phenylalanine--tRNA ligase beta subunit (Homo sapiens, UniProt Q9NSD9)
# T2 sequence (Q9NSD9 whole entry): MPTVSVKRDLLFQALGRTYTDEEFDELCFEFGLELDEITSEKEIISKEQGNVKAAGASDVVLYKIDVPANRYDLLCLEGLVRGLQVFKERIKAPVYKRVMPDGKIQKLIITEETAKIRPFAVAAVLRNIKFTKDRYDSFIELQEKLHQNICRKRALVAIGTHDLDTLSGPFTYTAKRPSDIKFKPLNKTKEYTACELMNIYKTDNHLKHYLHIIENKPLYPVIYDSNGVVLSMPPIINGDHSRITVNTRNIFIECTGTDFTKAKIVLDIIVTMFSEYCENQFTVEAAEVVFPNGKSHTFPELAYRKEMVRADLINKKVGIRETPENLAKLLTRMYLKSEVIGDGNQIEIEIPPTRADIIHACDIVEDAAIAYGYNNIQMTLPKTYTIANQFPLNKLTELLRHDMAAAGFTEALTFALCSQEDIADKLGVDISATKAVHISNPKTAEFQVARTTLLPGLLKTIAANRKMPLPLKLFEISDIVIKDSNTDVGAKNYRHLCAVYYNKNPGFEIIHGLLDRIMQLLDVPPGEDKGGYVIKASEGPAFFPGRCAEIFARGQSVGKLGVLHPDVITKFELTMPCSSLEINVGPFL
# [2] = biological target: Tyrosine-protein kinase HCK (Homo sapiens, UniProt P08631)
# Tyrosine-protein kinase HCK, sequence (P08631 whole entry): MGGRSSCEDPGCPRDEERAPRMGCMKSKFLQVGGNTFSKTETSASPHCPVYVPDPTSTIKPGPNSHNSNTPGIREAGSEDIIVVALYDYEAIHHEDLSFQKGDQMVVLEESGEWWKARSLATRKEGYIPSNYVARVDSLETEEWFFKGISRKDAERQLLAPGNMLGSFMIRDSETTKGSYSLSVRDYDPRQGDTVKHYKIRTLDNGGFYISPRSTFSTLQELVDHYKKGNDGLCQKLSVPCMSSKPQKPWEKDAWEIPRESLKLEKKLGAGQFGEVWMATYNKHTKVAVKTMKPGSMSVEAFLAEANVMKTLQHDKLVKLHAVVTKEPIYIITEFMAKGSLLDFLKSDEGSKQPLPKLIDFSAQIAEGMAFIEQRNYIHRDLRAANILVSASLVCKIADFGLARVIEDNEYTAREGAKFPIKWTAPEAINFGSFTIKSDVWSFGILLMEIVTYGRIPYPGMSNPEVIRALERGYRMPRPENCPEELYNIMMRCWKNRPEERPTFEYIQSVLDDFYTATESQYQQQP
# [3] = biological target: Mitogen-activated protein kinase kinase kinase kinase 5 (Homo sapiens, UniProt Q9Y4K4)
# Mitogen-activated protein kinase kinase kinase kinase 5, sequence (Q9Y4K4 whole entry): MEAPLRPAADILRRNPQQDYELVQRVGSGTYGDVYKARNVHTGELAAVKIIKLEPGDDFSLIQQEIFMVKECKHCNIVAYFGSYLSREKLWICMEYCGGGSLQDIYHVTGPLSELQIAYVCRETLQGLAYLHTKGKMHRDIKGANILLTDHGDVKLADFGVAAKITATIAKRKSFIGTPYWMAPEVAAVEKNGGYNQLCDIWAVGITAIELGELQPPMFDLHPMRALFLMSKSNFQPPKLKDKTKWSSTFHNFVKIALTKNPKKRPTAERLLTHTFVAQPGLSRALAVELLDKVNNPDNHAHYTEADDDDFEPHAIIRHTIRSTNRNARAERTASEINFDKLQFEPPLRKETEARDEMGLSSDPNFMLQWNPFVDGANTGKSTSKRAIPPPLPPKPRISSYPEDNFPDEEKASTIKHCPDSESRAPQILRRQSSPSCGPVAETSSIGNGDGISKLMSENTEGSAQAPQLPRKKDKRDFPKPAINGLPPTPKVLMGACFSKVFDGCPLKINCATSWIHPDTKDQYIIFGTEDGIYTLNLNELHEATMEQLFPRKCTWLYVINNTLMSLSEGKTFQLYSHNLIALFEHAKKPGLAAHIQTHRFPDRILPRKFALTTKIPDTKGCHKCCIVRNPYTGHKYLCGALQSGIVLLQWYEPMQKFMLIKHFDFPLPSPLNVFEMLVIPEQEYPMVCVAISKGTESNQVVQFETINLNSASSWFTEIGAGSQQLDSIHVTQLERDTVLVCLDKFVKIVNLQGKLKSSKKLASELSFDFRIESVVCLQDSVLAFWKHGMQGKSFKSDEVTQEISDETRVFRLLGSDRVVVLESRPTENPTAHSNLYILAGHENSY
# [4] = biological target: Serine/threonine-protein kinase N2 (Homo sapiens, UniProt Q16513)
# Serine/threonine-protein kinase N2, sequence (Q16513 whole entry): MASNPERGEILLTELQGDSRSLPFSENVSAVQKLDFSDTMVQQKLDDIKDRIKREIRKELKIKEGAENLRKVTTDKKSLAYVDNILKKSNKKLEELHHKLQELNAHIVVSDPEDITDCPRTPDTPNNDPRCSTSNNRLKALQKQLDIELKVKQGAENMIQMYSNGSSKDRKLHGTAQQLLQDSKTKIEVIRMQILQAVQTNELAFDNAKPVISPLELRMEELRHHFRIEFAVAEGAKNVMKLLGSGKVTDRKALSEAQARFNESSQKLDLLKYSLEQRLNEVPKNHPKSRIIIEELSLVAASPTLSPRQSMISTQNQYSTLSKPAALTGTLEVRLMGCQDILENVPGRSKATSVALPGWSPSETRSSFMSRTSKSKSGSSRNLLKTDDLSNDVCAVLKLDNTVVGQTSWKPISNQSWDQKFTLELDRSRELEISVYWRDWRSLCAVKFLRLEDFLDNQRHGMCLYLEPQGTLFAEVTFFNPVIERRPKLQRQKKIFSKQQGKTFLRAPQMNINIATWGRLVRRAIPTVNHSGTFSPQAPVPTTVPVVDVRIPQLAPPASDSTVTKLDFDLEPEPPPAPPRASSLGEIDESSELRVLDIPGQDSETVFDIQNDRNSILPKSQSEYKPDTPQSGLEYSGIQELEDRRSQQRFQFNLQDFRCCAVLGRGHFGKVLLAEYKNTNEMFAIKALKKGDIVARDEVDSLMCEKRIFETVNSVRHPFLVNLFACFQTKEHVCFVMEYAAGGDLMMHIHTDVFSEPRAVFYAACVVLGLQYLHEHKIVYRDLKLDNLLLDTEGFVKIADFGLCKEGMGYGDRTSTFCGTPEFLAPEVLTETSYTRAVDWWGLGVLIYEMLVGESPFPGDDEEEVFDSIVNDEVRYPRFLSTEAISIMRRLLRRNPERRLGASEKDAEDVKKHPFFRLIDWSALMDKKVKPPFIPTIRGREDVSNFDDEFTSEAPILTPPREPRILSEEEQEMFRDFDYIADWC
# [5] = biological target: cAMP-dependent protein kinase catalytic subunit alpha (Homo sapiens, UniProt P17612)
# [6] = biological target: GTP-binding nuclear protein Ran (Homo sapiens, UniProt P62826)
# [7] = biological target: Serine/threonine-protein kinase 10 (Homo sapiens, UniProt O94804)
# Serine/threonine-protein kinase 10, sequence (O94804 whole entry): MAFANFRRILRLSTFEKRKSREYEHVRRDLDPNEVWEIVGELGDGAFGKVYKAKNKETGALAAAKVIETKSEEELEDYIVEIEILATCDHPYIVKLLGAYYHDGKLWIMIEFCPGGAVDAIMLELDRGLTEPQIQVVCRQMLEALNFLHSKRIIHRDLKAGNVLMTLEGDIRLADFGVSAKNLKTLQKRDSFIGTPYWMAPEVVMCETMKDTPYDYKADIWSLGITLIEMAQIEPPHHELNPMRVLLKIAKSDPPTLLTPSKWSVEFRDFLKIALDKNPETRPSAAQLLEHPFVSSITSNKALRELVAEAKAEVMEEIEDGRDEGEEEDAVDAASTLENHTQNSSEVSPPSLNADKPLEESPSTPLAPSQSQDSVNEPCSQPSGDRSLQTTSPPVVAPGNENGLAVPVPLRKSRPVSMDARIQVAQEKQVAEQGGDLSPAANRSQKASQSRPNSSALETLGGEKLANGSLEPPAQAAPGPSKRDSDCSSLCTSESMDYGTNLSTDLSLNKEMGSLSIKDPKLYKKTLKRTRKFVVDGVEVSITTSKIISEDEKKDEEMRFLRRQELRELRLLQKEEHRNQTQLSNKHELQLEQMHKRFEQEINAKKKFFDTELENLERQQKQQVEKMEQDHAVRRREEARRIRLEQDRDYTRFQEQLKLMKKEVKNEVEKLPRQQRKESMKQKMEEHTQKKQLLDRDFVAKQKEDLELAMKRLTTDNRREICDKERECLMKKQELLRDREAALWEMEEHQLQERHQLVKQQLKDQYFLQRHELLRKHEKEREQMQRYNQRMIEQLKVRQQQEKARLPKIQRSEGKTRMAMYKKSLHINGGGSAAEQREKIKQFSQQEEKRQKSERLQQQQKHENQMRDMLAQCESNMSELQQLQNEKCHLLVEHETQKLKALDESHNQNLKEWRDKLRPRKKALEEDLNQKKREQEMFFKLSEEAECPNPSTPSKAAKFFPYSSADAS
# [8] = biological target: Tyrosine-protein kinase SYK (Homo sapiens, UniProt P43405)
# [9] = biological target: T3, Signal recognition particle receptor subunit alpha (Homo sapiens, UniProt P08240)
# T3 sequence (P08240 whole entry): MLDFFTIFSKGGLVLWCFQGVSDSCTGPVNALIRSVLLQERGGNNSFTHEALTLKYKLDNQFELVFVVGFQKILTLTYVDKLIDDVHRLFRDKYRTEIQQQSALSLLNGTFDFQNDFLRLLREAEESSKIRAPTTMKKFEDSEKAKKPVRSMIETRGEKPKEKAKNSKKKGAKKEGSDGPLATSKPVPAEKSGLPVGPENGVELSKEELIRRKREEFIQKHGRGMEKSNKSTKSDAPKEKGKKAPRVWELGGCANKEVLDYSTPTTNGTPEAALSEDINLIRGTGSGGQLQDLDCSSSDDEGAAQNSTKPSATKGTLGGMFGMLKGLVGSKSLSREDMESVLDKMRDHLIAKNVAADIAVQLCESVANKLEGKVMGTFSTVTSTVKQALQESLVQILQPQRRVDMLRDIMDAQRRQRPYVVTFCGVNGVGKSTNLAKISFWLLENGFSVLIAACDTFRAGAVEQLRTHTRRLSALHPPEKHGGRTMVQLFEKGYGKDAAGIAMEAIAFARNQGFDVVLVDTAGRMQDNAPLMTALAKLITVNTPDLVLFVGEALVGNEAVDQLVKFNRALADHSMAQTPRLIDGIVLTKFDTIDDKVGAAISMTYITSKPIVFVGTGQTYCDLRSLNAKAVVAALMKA
SMILES,Kd (Ephrin type-B receptor 4),Kd [1],Kd [2],Kd [3],Kd [4],Kd [5],Kd [6],Kd [7],Kd [8],Kd [9]
C[C@H]1CNCCCN1S(=O)(=O)c1cccc2cncc(F)c12,> 30 µM (inactive),> 30 µM (inactive),> 30 µM (inactive),> 30 µM (inactive),0.285 µM (active),> 30 µM (inactive),> 30 µM (inactive),> 30 µM (inactive),> 30 µM (inactive),–
CC(=O)c1cnc2ccc(-c3cc(Cl)c(O)c(Cl)c3)nc2c1N[C@H]1CC[C@H](CN(C)C)CC1,0.143 µM (active),> 30 µM (inactive),0.116 µM (active),0.071 µM (active),> 30 µM (inactive),> 30 µM (inactive),> 30 µM (inactive),0.014 µM (active),> 30 µM (inactive),> 30 µM (inactive)
Cc1nc2cc(-c3nn(C(C)C)c4ncnc(N)c34)ccc2o1,> 30 µM (inactive),> 30 µM (inactive),> 30 µM (inactive),> 30 µM (inactive),> 30 µM (inactive),> 30 µM (inactive),> 30 µM (inactive),–,> 30 µM (inactive),> 30 µM (inactive)
Nc1ncnc2c1c(-c1cccc(OCc3ccccc3)c1)cn2[C@H]1C[C@@H](CN2CCC2)C1 [AEW-541],> 30 µM (inactive),> 30 µM (inactive),0.623 µM (active),2.49 µM (active),> 30 µM (inactive),> 30 µM (inactive),> 30 µM (inactive),> 30 µM (inactive),> 30 µM (inactive),–
COc1cc(Nc2ncc3c(n2)-c2ccc(Cl)cc2C(c2c(F)cccc2OC)=NC3)ccc1C(=O)O [ALISERTIB],–,> 30 µM (inactive),–,–,–,> 30 µM (inactive),> 30 µM (inactive),> 30 µM (inactive),–,> 30 µM (inactive)
O=C(Nc1c[nH]nc1-c1nc2cc(CN3CCOCC3)ccc2[nH]1)NC1CC1 [AT-9283],–,> 30 µM (inactive),0.664 µM (active),–,2.77 µM (active),3.19 µM (active),> 30 µM (inactive),0.082 µM (active),0.116 µM (active),> 30 µM (inactive)
CNC(=O)c1ccccc1Sc1ccc2c(/C=C/c3ccccn3)n[nH]c2c1 [AXITINIB],–,> 30 µM (inactive),–,–,–,–,> 30 µM (inactive),–,–,> 30 µM (inactive)
CC(C)(C)c1nc(-c2cccc(NS(=O)(=O)c3c(F)cccc3F)c2F)c(-c2ccnc(N)n2)s1 [DABRAFENIB],–,> 30 µM (inactive),1.65 µM,> 30 µM (inactive),> 30 µM (inactive),–,> 30 µM (inactive),–,> 30 µM (inactive),> 30 µM (inactive)
Cn1cc(C2=C(c3cn(C4CCN(Cc5ccccn5)CC4)c4ccccc34)C(=O)NC2=O)c2ccccc21 [ENZASTAURIN],–,> 30 µM (inactive),–,–,–,–,> 30 µM (inactive),–,–,–
C[C@@H](Oc1cc(-n2cnc3ccc(CN4CCN(C)CC4)cc32)sc1C(N)=O)c1ccccc1C(F)(F)F [GSK-461364],–,> 30 µM (inactive),–,–,–,–,> 30 µM (inactive),–,–,> 30 µM (inactive)
CCn1cc(-c2ccnc3[nH]c(-c4cccc(CN(C)C)c4)cc23)c(-c2ccc(NC(=O)N(C)C)cc2)n1 [GSK-1070916],> 30 µM (inactive),> 30 µM (inactive),> 30 µM (inactive),> 30 µM (inactive),> 30 µM (inactive),> 30 µM (inactive),> 30 µM (inactive),> 30 µM (inactive),> 30 µM (inactive),–
Cc1[nH]c(/C=C2\C(=O)Nc3ccccc32)c(C)c1CCC(=O)O [ORANTINIB],> 30 µM (inactive),> 30 µM (inactive),–,–,–,–,> 30 µM (inactive),–,–,> 30 µM (inactive)
NC(=O)c1c(OCc2c(F)cc(Br)cc2F)nsc1NC(=O)NCCCCN1CCCC1 [OSI-632],> 30 µM (inactive),> 30 µM (inactive),> 30 µM (inactive),–,–,–,> 30 µM (inactive),0.515 µM (active),–,> 30 µM (inactive)
CCOc1cc2ncc(C#N)c(Nc3ccc(F)c(Cl)c3)c2cc1NC(=O)/C=C/CN(C)C [PELITINIB],> 30 µM (inactive),> 30 µM (inactive),1.18 µM (active),0.042 µM (active),> 30 µM (inactive),> 30 µM (inactive),> 30 µM (inactive),–,> 30 µM (inactive),–
CC(=O)NCC(=O)N1[C@@H]2CC[C@H]1c1ccc(Nc3ncc(C(F)(F)F)c(NC4CCC4)n3)cc12 [PF-03814735],> 30 µM (inactive),> 30 µM (inactive),> 30 µM (inactive),–,–,–,> 30 µM (inactive),0.309 µM (active),–,> 30 µM (inactive)
CNC(=O)c1cc(Oc2ccc(NC(=O)Nc3cc(C(C)(C)C)nn3-c3ccc4ncccc4c3)c(F)c2)ccn1 [REBASTINIB],> 30 µM (inactive),> 30 µM (inactive),–,–,> 30 µM (inactive),> 30 µM (inactive),> 30 µM (inactive),–,1.83 µM (active),> 30 µM (inactive)
N#CC1(c2ccc(NC(=O)c3cccnc3NCc3ccncc3)cc2)CCCC1 [RIVOCERANIB],> 30 µM (inactive),> 30 µM (inactive),> 30 µM (inactive),> 30 µM (inactive),> 30 µM (inactive),> 30 µM (inactive),> 30 µM (inactive),> 30 µM (inactive),> 30 µM (inactive),–
O=C(NOCCO)c1cc(CN2OCCCC2=O)c(F)c(F)c1Nc1ccc(I)cc1F [RO-4987655],–,> 30 µM (inactive),–,–,–,–,> 30 µM (inactive),–,–,> 30 µM (inactive)
N#CC[C@H](C1CCCC1)n1cc(-c2ncnc3[nH]ccc23)cn1 [RUXOLITINIB],–,> 30 µM (inactive),–,–,–,–,> 30 µM (inactive),–,–,–
C[C@@H](NC(=O)c1ncnc(N)c1Cl)c1ncc(C(=O)Nc2cc(C(F)(F)F)c(Cl)cn2)s1 [TOVORAFENIB],9.43 µM (active),> 30 µM (inactive),> 30 µM (inactive),> 30 µM (inactive),> 30 µM (inactive),> 30 µM (inactive),> 30 µM (inactive),> 30 µM (inactive),> 30 µM (inactive),–
